Experimental data reported in publication PMC11219871, “Epigenetic-based differentiation therapy for Acute Myeloid Leukemia” (Nature Communications, 2024).
“And” between values parts separate entries of the source, which are not always exact repeats. Identical values can stand only once.

How the values were obtained:
Type in all cases: cell-based, human
[1] = test system: primary AML patient samples; assay: Differentiation assay, CD11b flow cytometry in primary samples; conditions: for CD11b-positive cells (%): daily 48 h
Experimental: (§1) Next, the cells were washed twice with phosphate-buffered saline (PBS) and resuspended in 1X Binding Buffer at a concentration of 1 × 10^6 cells/mL. An 8-µL aliquot of APC-CD11b (BD Pharmingen, Franklin Lakes, NJ, USA) and 1 µL of FITC annexin-V (AV) (BD Pharmingen, Franklin Lakes, NJ, USA) antibodies were added and incubated for 15 min at room temperature in the dark. Finally, after the addition of 400 µL of 1X Binding Buffer to each tube, samples were collected on a BD FACSCanto flow cytometer (Becton Dickinson, San Jose, CA, USA) and analyzed using FlowJo software.
Peripheral blood (PB) specimens were obtained from preliminarily diagnosed AML patients who had not received any treatment before specimens were collected. All patients gave informed consent for their participation in this study, which was approved by the Clinical Research Ethics Committee of Clínica Universidad de Navarra. Written informed consent was obtained from each participant. PB was mixed with an ammonium chloride-potassium (ACK) buffer lysis (0.15 mol/L NH4Cl, 10 mmol/L KHCO3, 0.1 mmol/L ethylenediaminetetraacetic acid, pH 7.2) at a 1:2 volume ratio by gentle inversion, incubated for 10 min and centrifuged at 200 g for 10 min. The cell pellet was washed twice with PBS and finally resuspended in EGM2 medium (Cambrex Bioscience, Walkersville, MD). EGM2 contains 2% fetal calf serum, hydrocortisone, heparin, antibiotics, epidermal growth factor, human fibroblast growth factor, insulin-like growth factor, vascular endothelial growth factor, and ascorbic acid. The cells were plated at 1 × 10^6 cells/mL and treated daily with 200 and 500 nM of CM-444 and CM-1758 for 48 h. Next, the differentiation assay was performed as described above.

MV4-11 = assay: Differentiation-apoptosis assay, CD11b / annexin-V / Sytox Green / myeloid markers flow cytometry; design: Cell viability (%): concentration or dose not given beside the values
Experimental: as §1
(§2) For the rest of experiments, the mix of antibodies (2 µL of BV786-CD13, Cat No, 744748 BD; 1 µL of diluted 1:10 antibody of PB-HLADR, Cat No 307633, Biolegend; 5 µL of APCH7-CD14, Cat No 641394, BD) was added to 10 µL of Brilliant Stain Buffer Plus (Becton Dickinson, San Jose, CA, USA). Then, 1 million cells (volume of 250 µL) were added and incubated for 30 min at room temperature in darkness. After 10 min incubation at room temperature with 2 mL of FACSLysing 1X, cells were centrifuged at 540 g for 5 min and washed twice with FACSBuffer. Finally, after centrifugation at 540 g for 5 min cells were resuspended in FACSBuffer.

MOLM-13 = assay: as above; design: Cell viability (%): concentration or dose not given beside the values
Experimental: as §1, §2

HL-60 = assay: as above; design: Cell viability (%): concentration or dose not given beside the values; conditions: for Annexin V (%) Replicate 1 / Annexin V (%) Replicate 2 / Annexin V (%) Replicate 3 / CD11b (%) Replicate 1 / CD11b (%) Replicate 2 / CD11b (%) Replicate 3: HL-60, daily 25% GI50, 48 h
Experimental: Next, the cells were washed twice with phosphate-buffered saline (PBS) and resuspended in 1X Binding Buffer at a concentration of 1 × 10^6 cells/mL. […] Finally, after the addition of 400 µL of 1X Binding Buffer to each tube, samples were collected on a BD FACSCanto flow cytometer (Becton Dickinson, San Jose, CA, USA) and analyzed using FlowJo software.
Then, 1 million cells (volume of 250 µL) were added and incubated for 30 min at room temperature in darkness. After 10 min incubation at room temperature with 2 mL of FACSLysing 1X, cells were centrifuged at 540 g for 5 min and washed twice with FACSBuffer. Finally, after centrifugation at 540 g for 5 min cells were resuspended in FACSBuffer.

[2] = MV4-11, 48 h treatment, replicates 1-3 (Suppl. Fig. 5A)
[3] = MOLM-13, 48 h treatment, replicates 1-3 (Suppl. Fig. 5A)
[4] = HL-60, 48 h treatment, replicates 1-3 (Suppl. Fig. 5A)

SMILES | Annexin V (%) Replicate 1 (HL-60) [%] | Annexin V (%) Replicate 2 (HL-60) [%] | Annexin V (%) Replicate 3 (HL-60) [%] | CD11b (%) Replicate 1 (HL-60) [%] | CD11b (%) Replicate 2 (HL-60) [%] | CD11b (%) Replicate 3 (HL-60) [%] | CD11b (%) (MV4-11; [2]) | Cell viability (%) (MV4-11; [2]) | CD11b (%) (MOLM-13; [3]) | Cell viability (%) (MOLM-13; [3]) | CD11b (%) (HL-60; [4]) | Cell viability (%) (HL-60; [4]) | other results
CC1=C(/C=C/C(C)=C/C=C/C(C)=C/C(=O)O)C(C)(C)CCC1 [ATRA, all-trans retinoic acid, reference compound] | 0.34 | 0.98 | 0.97 | 10.12 | 15.48 | 12.56 |  |  |  |  |  |  | CD11b (%) ([1]; primary AML patient sample 1 (Figure 2C)): 26.1%; CD11b (%) ([1]; primary AML patient sample 2 (Figure 2C)): 17.45%; CD11b (%) ([1]; primary AML patient sample 3 (Figure 2C)): 10.26%; CD11b (%) ([1]; primary AML patient sample 4 (Figure 2C)): 25.36%; CD11b (%) ([1]; primary AML patient sample 5 (Figure 2C)): 15.2%; CD11b (%) ([1]; primary AML patient sample 6 (Figure 2C)): 16.3%; CD11b (%) ([1]; primary AML patient sample 7 (Figure 2C)): 29.3%; CD11b (%) ([1]; primary AML patient sample 8 (Figure 2C)): 13.25%; CD11b-positive cells (%) ([1]; sample AML-1, 2 µM): 26.1%; CD11b-positive cells (%) ([1]; sample AML-2, 2 µM): 17.5%; CD11b-positive cells (%) ([1]; sample AML-3, 2 µM): 10.3%; CD11b-positive cells (%) ([1]; sample AML-4, 2 µM): 25.4%; CD11b-positive cells (%) ([1]; sample AML-5, 2 µM): 15.2%; CD11b-positive cells (%) ([1]; sample AML-6, 2 µM): 16.3%; CD11b-positive cells (%) ([1]; sample AML-7, 2 µM): 29.3%; CD11b-positive cells (%) ([1]; sample AML-8, 2 µM): 13.3%; CD11b (%) (MV4-11; MV4-11 cell line, replicates 1-3 (Figure 2A)): 9.6% and 4.7% and 11.86%; CD11b (%) (MOLM-13; MOLM-13 cell line, replicates 1-3 (Figure 2A)): 26.9% and 23.1% and 27.34%; CD11b (%) (HL-60; HL-60 cell line, replicates 1-3 (Figure 2A)): 10.3% and 15.8% and 12.06%
Cc1[nH]c2ccccc2c1CCNCc1ccc(/C=C/C(=O)NO)cc1 [Panobinostat, reference compound] | 20.30 | 24.90 | 22.00 | 12.07 | 18.60 | 12.38 | 12.9% and 19.4% and 18.7% | 38.3% and 43.2% and 44.2% | 39.6% and 32.7% and 32.0% | 45.5% and 59.6% and 57.8% | 10.8% and 18.5% | 45.2% and 38.6% and 44.9% | 
O=C(CCCCCCC(=O)Nc1ccccc1)NO [Vorinostat, reference compound] |  |  |  |  |  |  | 15.2% and 20.7% and 19.4% | 86.1% and 89% and 91% | 37.1% and 43.8% and 41.2% | 69.1% and 74.5% and 73.9% | 30.8% and 39.8% and 27.7% | 74.2% and 83.6% and 75% | 
